# From US9115143B2, “Substituted indole derivatives as gamma secretase modulators” (Janssen Pharmaceuticals, Inc., priority 2011, dated 2015)
# Experiments:
# Aβ42 = assay: In vivo efficacy B-1a: brain soluble Aβ42 in non-transgenic rodents, ELISA; set-up: species or system mouse; settings: dose 30 mg/kg oral dosing, brain soluble fraction, untreated animals (Ctrl) set at 100; for response vs control in vivo at 30 mg/kg: Mus musculus, po, read-out: Aβ42 (% vs Ctrl)_Mean
# From the text: (§1) To determine whether acute administration of an Aβ42 lowering agent would reduce Aβ42 levels in vivo, non-transgenic rodents, e.g. mice or rats were used. Animals treated with the Aβ42 lowering agent were examined and compared to those untreated or treated with vehicle and brain levels of soluble Aβ42 and total Aβ were quantitated by standard techniques, for example, using ELISA. Treatment periods varied from hours (h) to days and were adjusted based on the results of the Aβ42 lowering once a time course of onset of effect could be established.
# (§2) A typical protocol for measuring Aβ42 lowering in vivo is shown but it is only one of many variations that could be used to optimize the levels of detectable Aβ. For example, Aβ42 lowering compounds were formulated in 20% of Captisol® (a sulfobutyl ether of β-cyclodextrin) in water or 20% hydroxypropyl β cyclodextrin. The Aβ42 lowering agents were administered as a single oral dose or by any acceptable route of administration to overnight fasted animals. After 4 h, the animals were sacrificed and Aβ42 levels were analysed.
# (§3) Blood was collected by decapitation and exsanguinations in EDTA-treated collection tubes. Blood was centrifuged at 1900 g for 10 minutes (min) at 4° C. and the plasma recovered and flash frozen for later analysis. The brain was removed from the cranium and hindbrain. The cerebellum was removed and the left and right hemisphere were separated. The left hemisphere was stored at −18° C. for quantitative analysis of test compound levels. The right hemisphere was rinsed with phosphate-buffered saline (PBS) buffer and immediately frozen on dry ice and stored at −80° C. until homogenization for biochemical assays.
# (§4) Mouse brains from non-transgenic animals were resuspended in 8 volumes of 0.4% DEA (diethylamine)/50 mM NaCl containing protease inhibitors (Roche-11873580001 or 04693159001) per gram of tissue, e.g. for 0.158 g brain, add 1.264 mL of 0.4% DEA. All samples were homogenized in the FastPrep-24 system (MP Biomedicals) using lysing matrix D (MPBio #6913-100) at 6 m/s for 20 seconds. Homogenates were centrifuged at 20800×g for 5 min and supernatants collected. Supernatants were centrifuged at 221.300×g for 50 min. The resulting high speed supernatants were then transferred to fresh eppendorf tubes. Nine parts of supernatant were neutralized with 1 part 0.5 M Tris-HCl pH 6.8 and used to quantify Aβtotal and Aβ42.
# (§5) To quantify the amount of Aβtotal and Aβ42 in the soluble fraction of the brain homogenates, Enzyme-Linked-Immunosorbent-Assays were used. Briefly, the standards (a dilution of synthetic Aβ1-40 and Aβ1-42, Bachem) were prepared in 1.5 mL Eppendorf tube in Ultraculture, with final concentrations ranging from 10000 to 0.3 pg/mL. The samples and standards were co-incubated with HRPO-labelled N-terminal antibody JRF/rAμ/2 for Aβ42 detection and with the biotinylated mid-domain antibody 4G8 for Aβtotal detection. 50 μl of conjugate/sample or conjugate/standards mixtures were then added to the antibody-coated plate (the capture antibodies selectively recognize the C-terminal end of Aβ42, antibody JRF/cAβ42/26, for Aβ42 detection and the N-terminus of AB, antibody JRF/rAβ/2, for Aβtotal detection). The plate was allowed to incubate overnight at 4° C. in order to allow formation of the antibody-amyloid complex. Following this incubation and subsequent wash steps the ELISA for Aβ42 quantification was finished by addition of Quanta Blu fluorogenic peroxidase substrate according to the manufacturer's instructions (Pierce Corp., Rockford, Ill.). A reading was performed after 10 to 15 min (excitation 320 nm/emission 420 nm).
# In this model a Aβ42 lowering compared to untreated animals would be advantageous, in particular a Aβ42 lowering with at least 10%, more in particular a Aβ42 lowering with at least 20%.
# The results are shown in Table 4 (dose 30 mg/kg oral dosing) (value for untreated animals as control (Ctrl) was set at 100): […]
# Aβtotal = assay: In vivo efficacy B-1a/B-2a: brain soluble Aβtotal in non-transgenic rodents, ELISA; set-up: species or system mouse; settings: dose 30 mg/kg oral dosing, brain soluble fraction, untreated animals (Ctrl) set at 100; for Aβtotal (% vs Ctrl)_Mean: 30 mg/kg; for response vs control in vivo at 30 mg/kg: Mus musculus, po, 4 h, read-out: Aβtotal (% vs Ctrl)_Mean
# From the text: as §1, §2, §3, §4, §5
# For Aβtotal detection, a Streptavidine-Peroxidase-Conjugate was added, followed 60 min later by an additional wash step and addition of Quanta Blu fluorogenic peroxidase substrate according to the manufacturer's instructions (Pierce Corp., Rockford, Ill.). A reading was performed after 10 to 15 min (excitation 320 nm/emission 420 nm). […]
Structure (SMILES),Aβ42 (% vs Ctrl)_Mean (Aβ42; 30 mg/kg) [% vs Ctrl],Aβtotal (% vs Ctrl)_Mean (Aβtotal) [% vs Ctrl],response vs control in vivo at 30 mg/kg (Aβ42) [%],response vs control in vivo at 30 mg/kg (Aβtotal) [%]
"Cc1cc(F)ccc1C1CCCn2cc(-c3cc4cc(C#N)ccc4[nH]3)nc21 (stereo not shown) [Compound 4, 2-[8-(4-fluoro-2-methylphenyl)-5,6,7,8-tetrahydroimidazo[1,2-a]pyridin-2-yl]-1H-indole-5-carbonitrile]",63,82,,
"COc1c(C#N)ccc2[nH]c(-c3nc4n(n3)CCOC4c3ccccc3C(F)(F)F)cc12 (stereo not shown) [Compound 55, 2-[5,6-dihydro-8-[2-(trifluoromethyl)phenyl]-8H-[1,2,4]triazolo[5,1-c][1,4]oxazin-2-yl]-4-methoxy-1H-indole-5-carbonitrile]",,,55,111
"Cc1cn(-c2ccc3[nH]c(-c4nc5n(n4)CCCC5c4ccccc4C)cc3n2)cn1.Cl (stereo not shown) [Compound 5, 5,6,7,8-tetrahydro-2-[5-(4-methyl-1H-imidazol-1-yl)-1H-pyrrolo[3,2-b]pyridin-2-yl]-8-(2-methylphenyl)-[1,2,4]triazolo[1,5-a]pyridine]",,,106,80
"COc1c(C#N)ccc2[nH]c(-c3nc4n(n3)CCCC4c3ccc(F)cc3C)cc12 (stereo not shown) [Compound 59, 2-[8-(4-fluoro-2-methylphenyl)-5,6,7,8-tetrahydro[1,2,4]triazolo[1,5-a]pyridin-2-yl]-4-methoxy-1H-indole-5-carbonitrile]",,,55,86
"COc1c(C#N)ccc2[nH]c(-c3cn4c(n3)C(c3ccc(F)cc3C)OCC4)cc12 (stereo not shown) [Compound 46, 2-[8-(4-fluoro-2-methylphenyl)-5,6-dihydro-8H-imidazo[2,1-c][1,4]oxazin-2-yl]-4-methoxy-1H-indole-5-carbonitrile]",,88,52,
